From US20200068887A1, “TREATMENT FOR REMOVING ECTOPARASITES FROM FISH” (priority 2016, published 2020)
Values joined by “and” are separate entries in the source; they are usually repeats but may differ in a detail not shown here. Identical values can stand only once.

Tests used:
Lepeophtheirus salmonis = experiment: Relative efficacy study (optimisation of treatment concentration); type: in vivo; settings: for Parasite clearance: n=2, ±SEM
Procedure: 120 salmon fish (Salmo salar) were divided across five flow-through treatment tanks and acclimated for 24 hours prior to parasite challenge.
Egg strings removed from ovigerous female Lepeophtheirus salmonis were collected and cultured until infective copepodids were produced. The copepodids were then evenly distributed into five bottles containing sea water and stored at ˜10° C. overnight. In preparation for the challenge, water flows in the treatment tanks were stopped and light levels reduced. 650±20 copepodids (˜27 per host) were added to the static water and the tanks maintained in total darkness for 7 hours after which light levels were raised and the water flow resumed.
Fish were randomly divided into ten groups of ten fish and held in static ‘treatment buckets’ containing 30 L of water and high aeration as shown in Table 3.
Eight of the groups (3-10) were treated with the required concentrations of imidacloprid for 60 minutes: imidacloprid was dissolved in DMSO and added to ˜1L of tank water prior to addition to the treatment buckets. The remaining group and its replicate (1 & 2) were DMSO controls at 0.03%.
Experimental animals were monitored closely for adverse reactions and the status of the parasite infection. Where possible the time at which all parasites were thought to have detached was recorded. As treatments were performed in static systems, temperature and dissolved oxygen were regularly monitored throughout the procedure and aeration adjusted as required.
After the treatment period, the test animals were removed from the treatment solution and humanly euthanised. Each fish was weighed, measured, and its individual parasite burden assessed. The number of parasites in the treatment solution was also counted and qualitatively assessed for: sex and maturity, apparent signs of neonicotinoid poisoning, and/or potential recovery.
Logistic regression was used to compare parasite clearance after treatment with each of the concentration. Logistic regression analyses were performed using the glm function in R v.2.13.0 and assumed a binomial or quasi-binomial error distribution (determined through the comparison of the null deviance with the degrees of freedom).

Atlantic salmon = experiment: Fish behaviour/appearance and mortality during bath treatment trial; type: in vivo; settings: 20 ppm to 200 ppm, exposure 3 to 60 minutes
Procedure: Fish behaviour/appearance was assessed in vivo during each test. Any changes in behaviour and/or appearance including mortality were recorded.

sea lice = experiment: Comparison on isolated sea lice (in vitro bath exposure); settings: 60 min exposure; for % effect / Immobilised / Live: registered approx. 20 h after end of exposure
Procedure: Both pre-adult and adult stages (mobile stages) of both sexes were used, and they were equally distributed among groups. The sea lice were exposed to imidacloprid for 60 minutes, azamethiphos for 60 minutes and deltamethrin for 30 minutes in one litre baths at a range of concentrations (Tables 6, 7 and 8). The sea lice were transferred to clean aerated seawater after treatment. The temperature of the seawater during the experiment was 12° C., but during exposure the temperature raised to approx. 14° C. in regimes exposed for 60 min. (imidacloprid and azamethiphos) and to 13° C. for the regime exposed in 30 minutes (deltamethrin).
The numbers of live and immobilised (including killed) lice in each regime were registered approximately 20 h after end of exposure. Each louse was individually investigated.

salmon louse = experiment: Bath treatment of lice-infected Atlantic salmon, percent lice removed; type: in vivo; settings: 12° C.
Procedure: To determine the concentration- and time-dependence of imidacloprid treatment in vivo, Atlantic salmon (average of 320.9 g) were challenged with imidacloprid in seawater (32.5%0 salinity) at 12° C. The water level in the tank was lowered and aeration was employed during administration of the active. The salmon louse copepodid culture was counted and adjusted to obtain a target level of around 40 copepodids per fish in the challenge tank at each challenge time point.
Salmon lice on the fish were counted using standard methods. Only lice on the fish's outer surface, not including gills and oral/buccal cavities, were investigated.
Numbers of dissociated lice in tank water or attached to the tank walls were recorded. Lice in the tank water were collected and assessed for ability to attach by suction to a smooth plastic surface immediately after treatment and again after 30-60 minutes (to assess possible revival). Live and viable lice were also collected from the mock-treated control groups for reference and held in revival chambers for the same period of time to assess the system.
The test solutions of the active were prepared (added and homogenised with seawater) and administered to a treatment volume of 40 litres.
Three sea lice-infected fish from the holding tank were randomly gathered and carefully steered into a barrel forming an inner compartment (diameter=34.5-40 cm; height=54 cm) that was submerged in the tank and in which the base has been replaced with a plastic mesh screen with 9 mm^2 square holes.
The fish were transferred to the inner compartment within 3 minutes of each test start. The inner compartment was suspended/submerged in the holding tank pending treatment. Treatments and mock treatments were implemented by draining the inner compartment with fish and transferring it to a barrel containing the test solution. Treatments/mock treatments were performed in static water with aeration/oxygenation. Aeration was adjusted to set the oxygen saturation to 70-100%.
To terminate the treatment, the inner compartment with treated fish was lifted to the surface and drained, then fish were transferred directly and without water to a second basin with a lethal overdose of anaesthetic and left until dead. All lice remaining on these fish and lice that fell off in the anaesthetic bath were recorded.
Exposure times with imidacloprid ranged from 3 to 60 minutes, and doses ranged from 20 ppm to 200 ppm.
Negative control groups at 3- and 60 minutes were duplicated. Superscript numbers denote the total number of lice on the 3 fish in each test.
By way of comparison, fish infected with sea lice from the same sources were treated with azamethiphos at 0.1 mg/l and deltamethrin at 0.2 μ/l for 30 minutes, per the recommended dosage regimes. Treatments were carried out under similar conditions as those treated with imidacloprid. A mock-treatment control was also administered. Each treatment condition was administered in duplicate.
Superscript numbers denote the total number of lice on the 3 fish in each test.

[1] = isolated sea lice, immobilisation approx. 20 h after exposure

O=[N+]([O-])NC1=NCCN1Cc1ccc(Cl)nc1 [imidacloprid]
parasites remaining attached to their hosts at sampling (Lepeophtheirus salmonis; 10 mg/l, 60 min): 20% | Parasite clearance (Lepeophtheirus salmonis; 10 mg/l, 60 min): 80±11% | parasites remaining attached to their hosts at sampling (Lepeophtheirus salmonis; 15 mg/l, 60 min): 8% | Parasite clearance (Lepeophtheirus salmonis; 15 mg/l, 60 min): 92±4% | parasites remaining attached to their hosts at sampling (Lepeophtheirus salmonis; 20 mg/l, 60 min): 8% | Parasite clearance (Lepeophtheirus salmonis; 20 mg/l, 60 min): 92±7% | parasites remaining attached to their hosts at sampling (Lepeophtheirus salmonis; 25 mg/l, 60 min): 3% | Parasite clearance (Lepeophtheirus salmonis; 25 mg/l, 60 min): 97±3% | parasite infection removed (Lepeophtheirus salmonis; all four dosages (10, 15, 20, 25 mg/l), 60 minute treatment): 80-100% | optimum concentration within the range tested (Lepeophtheirus salmonis; range 10-25 mg/l, 60 min, no significant increase in efficacy above): 15 mg/L | fish mortality in the trial (Atlantic salmon): No fish died in the trial | % effect (sea lice; imidacloprid 5 ppm): 30% | Immobilised (sea lice; imidacloprid 5 ppm): 3 | Live (sea lice; imidacloprid 5 ppm): 7 | % effect (sea lice; imidacloprid 10 ppm): 40% and 50% | Immobilised (sea lice; imidacloprid 10 ppm): 4 and 5 | Live (sea lice; imidacloprid 10 ppm): 6 and 5 | % effect (sea lice; imidacloprid 15 ppm): 100% | Immobilised (sea lice; imidacloprid 15 ppm): 10 | Live (sea lice; imidacloprid 15 ppm): 0 | % effect (sea lice; imidacloprid 20 ppm): 100% | Immobilised (sea lice; imidacloprid 20 ppm): 10 | Live (sea lice; imidacloprid 20 ppm): 0 | % effect (sea lice; imidacloprid 30 ppm): 100% | Immobilised (sea lice; imidacloprid 30 ppm): 10 | Live (sea lice; imidacloprid 30 ppm): 0 | estimated EC90 value (sea lice; [1]): 14.4 ppm | estimated ECso value (sea lice; [1]): 7.6 ppm | percentage lice removed from fish after treatment relative to total numbers of lice (salmon louse; 20 ppm, 30 minutes, total 36 lice on 3 fish): 63.9^36% | percentage lice removed from fish after treatment relative to total numbers of lice (salmon louse; 20 ppm, 60 minutes, total 27 lice on 3 fish): 74.1^27% | percentage lice removed from fish after treatment relative to total numbers of lice (salmon louse; 50 ppm, 30 minutes, total 23 lice on 3 fish): 91.3^23% | percentage lice removed from fish after treatment relative to total numbers of lice (salmon louse; 100 ppm, 3 minutes, total 43 lice on 3 fish): 7.0^43% | percentage lice removed from fish after treatment relative to total numbers of lice (salmon louse; 100 ppm, 15 minutes, total 38 lice on 3 fish): 73.7^38% | percentage lice removed from fish after treatment relative to total numbers of lice (salmon louse; 200 ppm, 5 minutes, total 34 lice on 3 fish): 55.9^34% | percentage lice removed from fish after treatment relative to total numbers of lice (salmon louse; 200 ppm, 15 minutes, total 47 lice on 3 fish): 91.5^47%
